Data as given in patent publication US20120220039A1, “METHOD AND SYSTEM FOR DETECTING RESIDUAL POISON IN HUMAN BODY” (THE HONG KONG UNIVERSITY OF SCIENCE AND TECHNOLOGY, priority 2009, published 2012).

Assay: Drug analysis of abuser in different hair segments by HPLC-Chip-MS/MS
Format: in vivo, human
Text: Parent drug and its metabolites normally appear in hair after 5-7 day once administered. Hair normally grows at 0.75-1 cm/month. Drug taking habit or history can be reflected by analysis in different hair segments.
Hair specimens were collected and cut into different lengths. With the application of different conditions in Examples 1-8, drug distribution in different hair segments was illustrated (FIGS. 29 and 30).

[1] = Hair segment sample no. 1, hair length 0-4 cm, time 0-3 month
[2] = Hair segment sample no. 2, hair length 4-8 cm, time 3-6 month
[3] = Hair segment sample no. 3, hair length 8-12 cm, time 6-9 month
[4] = Hair segment sample no. 4, hair length 12-16 cm, time 9-12 month
[5] = Hair segment sample no. 5, hair length 16-20 cm, time 12-15 month
[6] = Hair segment sample no. 6, hair length 20-24 cm, time 15-18 month
[7] = Hair segment sample no. 7, hair length 24-28 cm, time 18-21 month
[8] = Hair segment sample no. 8, hair length 28-32 cm, time 21-24 month

Which “Concentration in hair segment” value [1] does the source give for Methadone here?
The value was 18.7 pg/mg.

What about the “Concentration in hair segment” value [2] of the same compound?
Its value is 18.3 pg/mg.

And the “Concentration in hair segment” value [3]?
The value was 18.4 pg/mg.

What about the “Concentration in hair segment” value [4] of the same compound?
Its value is 18.3 pg/mg.

What about the “Concentration in hair segment” value [5] of the same compound?
Its value is 18.3 pg/mg.

And the “Concentration in hair segment” value [6]?
The value was 18.3 pg/mg.

What about the “Concentration in hair segment” value [7] of the same compound?
The value was 18.3 pg/mg.

And the “Concentration in hair segment” value [8]?
Its value is 18.4 pg/mg.

What does the source list for `CN[C@@H](C)Cc1ccccc1` [Methamphetamine]?
Concentration in hair segment [1]: 117.6 pg/mg; Concentration in hair segment [2]: 263.6 pg/mg; Concentration in hair segment [3]: 198.2 pg/mg; Concentration in hair segment [4]: 201.1 pg/mg; Concentration in hair segment [5]: 107.3 pg/mg; Concentration in hair segment [6]: 920 pg/mg; Concentration in hair segment [7]: 156.3 pg/mg; Concentration in hair segment [8]: 273.5 pg/mg
